According to patent US10294202B2, “Pyrrolidinones as herbicides” (FMC Corporation, priority 2013, dated 2019):

Experiments:
ragweed [1] = assay: Test A pre-/postemergence herbicide test; type: in vivo, Ambrosia elatior
Method in brief: (§1)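 Approximately 10 days after treatment in the greenhouse, plants were compared with untreated controls and given a 0–100 visual injury rating. Applications: preemergence directed soil spray; postemergence on 2–10 cm plants at the one- to two-leaf stage.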

oat, wild = assay: Test C pre-/postemergence herbicide test; type: in vivo, Avena fatua; details: Postemergence
Method in brief: (§2)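 Plants grown and held in a greenhouse for 13 to 15 days post-spray, then rated 0–100 by visual comparison with controls. Pre treatments targeted seeds in loam and sand; post treatments targeted 1- to 4-leaf plants in peat-based potting medium.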

ryegrass, Italian = assay: Test C pre-/postemergence herbicide test; type: in vivo, Lolium multiflorum
Method in brief: as §2

giant foxtail = assay: Test A pre-/postemergence herbicide test; type: in vivo, Setaria faberii
Method in brief: as §1

rice = assay: Test C flooded paddy test; type: in vivo, Oryza sativa; details: Flood
Method in brief: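 Plants at the 2-leaf stage in pots flooded to 3 cm were treated by applying compound directly to the paddy water, with depth held throughout. After 13 to 15 days in a greenhouse, response was rated visually against controls on a 0 (no effect) to 100 (complete control) scale.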

blackgrass = assay: Test A postemergence herbicide test; type: in vivo, Alopecurus myosuroides
Method in brief: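 Ratings compare treated with untreated plants roughly 10 days after a postemergence application made at the one- to two-leaf stage. Scoring uses 0–100, where 0 means no effect and 100 complete control.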

velvetleaf = assay: Test C pre-/postemergence herbicide test; type: in vivo, Abutilon theophrasti
Method in brief: as §2

ragweed [2] = assay: Test C pre-/postemergence herbicide test; type: in vivo, Ambrosia elatior
Method in brief: as §2

kochia = assay: Test A pre-/postemergence herbicide test; type: in vivo, Kochia scoparia
Method in brief: as §1

[3] = 125 g ai/ha, visual rating, 0 to 100 scale, 0 no effect, 100 complete control, approximately 10 days, preemergence
[4] = Postemergence, 125 g ai/ha, 0 to 100 scale, 0 is no effect, 100 is complete control
[5] = preemergence, 500 g ai/ha, 0 to 100 scale, 0 is no effect and 100 is complete control
[6] = 31 g ai/ha, scale 0 to 100 (0 no effect, 100 complete control)
[7] = 62 g ai/ha, scale 0 (no effect) to 100 (complete control)
[8] = 125 g ai/ha, scale 0 to 100 (0 no effect, 100 complete control)
[9] = 250 g ai/ha, scale 0 to 100 (0 no effect, 100 complete control)
[10] = Postemergence, 31 g ai/ha, scale 0 to 100 (0 no effect, 100 complete control)
[11] = Postemergence, 62 g ai/ha, scale 0 (no effect) to 100 (complete control)
[12] = Postemergence, 125 g ai/ha, scale 0 to 100 (0 no effect, 100 complete control)
[13] = Postemergence, 250 g ai/ha, scale 0 to 100 (0 no effect, 100 complete control)
[14] = Preemergence, 31 g ai/ha, scale 0 to 100, 0 is no effect and 100 is complete control
[15] = Preemergence, 62 g ai/ha, scale 0 to 100 (0 no effect, 100 complete control)
[16] = Preemergence, 125 g ai/ha, scale 0 to 100 (0 no effect, 100 complete control)
[17] = 31 g ai/ha, scale of 0 to 100 where 0 is no effect and 100 is complete control, 13 to 15 days
[18] = 62 g ai/ha, scale of 0 to 100 where 0 is no effect and 100 is complete control, 13 to 15 days
[19] = 125 g ai/ha, scale of 0 to 100 where 0 is no effect and 100 is complete control, 13 to 15 days
[20] = 250 g ai/ha, scale of 0 to 100 where 0 is no effect and 100 is complete control, 13 to 15 days
[21] = 125 g ai/ha, 0 to 100 scale, 0 is no effect, 100 is complete control
[22] = Postemergence, 500 g ai/ha, 0 to 100 scale (0 no effect, 100 complete control)
[23] = Preemergence, 125 g ai/ha, 0 to 100 scale where 0 is no effect and 100 is complete control
[24] = Postemergence, 8 g ai/ha, scale 0 to 100 (0 no effect, 100 complete control)
[25] = Postemergence, 16 g ai/ha, scale 0 to 100 (0 no effect, 100 complete control)
[26] = Preemergence, 8 g ai/ha, scale 0 to 100
[27] = Preemergence, 16 g ai/ha, scale 0 to 100

O=C1NCC(c2cccc(OC(F)F)c2)C1C(=O)Nc1ccccc1F (stereo not drawn) [Compound 223]
70: Blackgrass plant response rating (0 to 100 scale, 0 is no effect, 100 is complete control) (blackgrass; 500 g ai/ha) | Kochia plant response rating (0 to 100 scale, 0 is no effect, 100 is complete control) (kochia; Postemergence, 500 g ai/ha)
0: Plant response rating, Ragweed (ragweed [1]; [4]) | Plant response rating, Oat, Wild (oat, wild; [6]) | Plant response rating, Oat, Wild (oat, wild; [7]) | Plant response rating, Oat, Wild (oat, wild; [8]) | Plant response rating, Oat, Wild (oat, wild; [9]) | Plant response rating, Ryegrass, Italian (ryegrass, Italian; [10]) | Plant response rating, Ryegrass, Italian (ryegrass, Italian; [11]) | Plant response rating, Ryegrass, Italian (ryegrass, Italian; [12]) | Plant response rating, Ryegrass, Italian (ryegrass, Italian; [13]) | Ryegrass, Italian plant response rating (ryegrass, Italian; [14]) | Ryegrass, Italian plant response rating (ryegrass, Italian; [15]) | Plant response rating, Rice (rice; [17]) | Plant response rating, Rice (rice; [18]) | Plant response rating, Rice (rice; [19]) | Plant response rating, Rice (rice; [20]) | Plant response rating, Velvetleaf (velvetleaf; [10]) | Plant response rating, Velvetleaf (velvetleaf; [11]) | Plant response rating, Velvetleaf (velvetleaf; [12]) | Velvetleaf plant response rating (velvetleaf; [14]) | Velvetleaf plant response rating (velvetleaf; [15]) | Plant response rating, Ragweed (ragweed [2]; [10]) | Plant response rating, Ragweed (ragweed [2]; [11]) | Ragweed plant response rating (ragweed [2]; [14]) | Ragweed plant response rating (ragweed [2]; [15])
15: Plant response rating (scale of 0 to 100), Ryegrass, Italian (ryegrass, Italian; Preemergence, 250 g ai/ha)
10: Plant response rating, Ryegrass, Italian (ryegrass, Italian; [16]) | Plant response rating, Ragweed (ragweed [2]; [16])
90: Plant response rating, Foxtail, Giant (giant foxtail; [3]) | Foxtail, Giant plant response rating (0 to 100 scale, 0 is no effect, 100 is complete control) (giant foxtail; Postemergence, 500 g ai/ha) | Plant response rating, Foxtail, Giant (giant foxtail; [5])
25: Plant response rating, Velvetleaf (velvetleaf; [16]) | Plant response rating (scale of 0 to 100), Ragweed (ragweed [2]; Preemergence, 250 g ai/ha)
60: Plant response rating, Blackgrass (blackgrass; [21])
50: Plant response rating, Ragweed (ragweed [1]; [5]) | Plant response rating, Kochia (kochia; [4])
35: Plant response rating (scale of 0 to 100), Velvetleaf (velvetleaf; Preemergence, 250 g ai/ha) | Plant response rating, Ragweed (ragweed [2]; [12]) | Plant response rating, Ragweed (ragweed [2]; [13])
20: Plant response rating, Velvetleaf (velvetleaf; [13])
80: Plant response rating, Foxtail, Giant (giant foxtail; [4]) | Plant response rating, Kochia (kochia; [5])
30: Plant response rating, Ragweed (ragweed [1]; [3]) | Ragweed plant response rating (0 to 100 scale, 0 is no effect, 100 is complete control) (ragweed [1]; Postemergence, 500 g ai/ha) | Plant response rating, Kochia (kochia; [3])

O=C1NCC(c2ccc(C(F)(F)F)cc2)C1C(=O)Nc1ccc(F)c(F)c1F (stereo not drawn) [Compound 232]
75: Plant response rating (scale of 0 to 100), Velvetleaf (velvetleaf; Preemergence, 250 g ai/ha) | Plant response rating, Ragweed (ragweed [2]; [10]) | Plant response rating, Ragweed (ragweed [2]; [13])
25: Velvetleaf plant response rating (velvetleaf; [14])
40: Plant response rating, Ryegrass, Italian (ryegrass, Italian; [13]) | Plant response rating (scale of 0 to 100), Ryegrass, Italian (ryegrass, Italian; Preemergence, 250 g ai/ha) | Velvetleaf plant response rating (velvetleaf; [15])
0: Plant response rating, Oat, Wild (oat, wild; [6]) | Plant response rating, Oat, Wild (oat, wild; [7]) | Plant response rating, Oat, Wild (oat, wild; [8]) | Plant response rating, Ryegrass, Italian (ryegrass, Italian; [10]) | Plant response rating, Ryegrass, Italian (ryegrass, Italian; [11]) | Plant response rating, Ryegrass, Italian (ryegrass, Italian; [12]) | Ryegrass, Italian plant response rating (ryegrass, Italian; [14]) | Ryegrass, Italian plant response rating (ryegrass, Italian; [15]) | Plant response rating, Rice (rice; [17]) | Plant response rating, Rice (rice; [18]) | Plant response rating, Rice (rice; [19])
85: Plant response rating, Ragweed (ragweed [2]; [12]) | Ragweed plant response rating (ragweed [2]; [15]) | Plant response rating, Ragweed (ragweed [2]; [16])
30: Plant response rating, Ragweed (ragweed [1]; [3]) | Plant response rating, Oat, Wild (oat, wild; [9]) | Plant response rating, Velvetleaf (velvetleaf; [12])
15: Plant response rating, Rice (rice; [20]) | Plant response rating, Velvetleaf (velvetleaf; [11])
70: Plant response rating, Kochia (kochia; [3])
20: Plant response rating, Ragweed (ragweed [1]; [4]) | Plant response rating, Ryegrass, Italian (ryegrass, Italian; [16])
5: Plant response rating, Velvetleaf (velvetleaf; [10])
50: Ragweed plant response rating (0 to 100 scale, 0 is no effect, 100 is complete control) (ragweed [1]; Postemergence, 500 g ai/ha) | Plant response rating, Blackgrass (blackgrass; [21]) | Blackgrass plant response rating (0 to 100 scale, 0 is no effect, 100 is complete control) (blackgrass; 500 g ai/ha)
80: Plant response rating, Ragweed (ragweed [2]; [11]) | Plant response rating, Kochia (kochia; [4]) | Plant response rating, Kochia (kochia; [5])
90: Plant response rating, Ragweed (ragweed [1]; [5]) | Plant response rating, Foxtail, Giant (giant foxtail; [3]) | Plant response rating, Foxtail, Giant (giant foxtail; [4]) | Foxtail, Giant plant response rating (0 to 100 scale, 0 is no effect, 100 is complete control) (giant foxtail; Postemergence, 500 g ai/ha) | Plant response rating, Foxtail, Giant (giant foxtail; [5]) | Plant response rating (scale of 0 to 100), Ragweed (ragweed [2]; Preemergence, 250 g ai/ha) | Kochia plant response rating (0 to 100 scale, 0 is no effect, 100 is complete control) (kochia; Postemergence, 500 g ai/ha)
60: Plant response rating, Velvetleaf (velvetleaf; [13])
65: Plant response rating, Velvetleaf (velvetleaf; [16]) | Ragweed plant response rating (ragweed [2]; [14])

CN1CC(c2ccc(F)cc2)C(C(=O)Nc2cccc(F)c2F)C1=O (stereo not drawn) [Compound 271]
40: Plant response rating, Ragweed (ragweed [2]; [11])
80: Plant response rating, Ragweed (ragweed [1]; [5]) | Plant response rating, Kochia (kochia; [22]) | Plant response rating, Kochia (kochia; [5])
10: Ryegrass, Italian plant response rating (ryegrass, Italian; [15]) | Velvetleaf plant response rating (velvetleaf; [15]) | Ragweed plant response rating (ragweed [2]; [15])
90: Plant response rating, Foxtail, Giant (giant foxtail; [4]) | Plant response rating, Foxtail, Giant (giant foxtail; [22]) | Plant response rating, Foxtail, Giant (giant foxtail; [23]) | Plant response rating, Foxtail, Giant (giant foxtail; [5])
50: Plant response rating, Blackgrass (blackgrass; [21]) | Plant response rating, Kochia (kochia; [23])
0: Plant response rating, Ragweed (ragweed [1]; Postemergence, 125 g ai/ha, visual rating on 0 to 100 scale (0 no effect, 100 complete control), approx. 10 days) | Plant response rating, Oat, Wild (oat, wild; 8 g ai/ha, scale 0 to 100 (0 no effect, 100 complete control)) | Plant response rating, Oat, Wild (oat, wild; 16 g ai/ha, scale 0 to 100 (0 no effect, 100 complete control)) | Plant response rating, Oat, Wild (oat, wild; [6]) | Plant response rating, Oat, Wild (oat, wild; [7]) | Plant response rating, Ryegrass, Italian (ryegrass, Italian; [24]) | Plant response rating, Ryegrass, Italian (ryegrass, Italian; [25]) | Plant response rating, Ryegrass, Italian (ryegrass, Italian; [10]) | Plant response rating, Ryegrass, Italian (ryegrass, Italian; [11]) | Ryegrass, Italian plant response rating (ryegrass, Italian; [14]) | Plant response rating, Ryegrass, Italian (ryegrass, Italian; [26]) | Plant response rating, Ryegrass, Italian (ryegrass, Italian; [27]) | Plant response rating, Rice (rice; [19]) | Plant response rating, Rice (rice; [20]) | Plant response rating, Rice (rice; 500 g ai/ha, scale 0 to 100) | Plant response rating, Rice (rice; 1000 g ai/ha, scale 0 to 100) | Plant response rating, Velvetleaf (velvetleaf; [24]) | Plant response rating, Velvetleaf (velvetleaf; [25]) | Velvetleaf plant response rating (velvetleaf; [14]) | Plant response rating, Velvetleaf (velvetleaf; [26]) | Plant response rating, Velvetleaf (velvetleaf; [27]) | Plant response rating, Ragweed (ragweed [2]; [24]) | Ragweed plant response rating (ragweed [2]; [14]) | Plant response rating, Ragweed (ragweed [2]; [26]) | Plant response rating, Ragweed (ragweed [2]; [27])
5: Plant response rating, Velvetleaf (velvetleaf; [10]) | Plant response rating, Velvetleaf (velvetleaf; [11])
20: Plant response rating, Ragweed (ragweed [1]; [23])
60: Plant response rating, Ragweed (ragweed [1]; [22]) | Plant response rating, Blackgrass (blackgrass; 500 g ai/ha, 0 to 100 scale (0 no effect, 100 complete control)) | Plant response rating, Kochia (kochia; [4])
15: Plant response rating, Ragweed (ragweed [2]; [25])
25: Plant response rating, Ragweed (ragweed [2]; [10])
